Data published in patent publication US12552804B2, “Tricyclic heterocycles as FGFR inhibitors” (Incyte Corporation, priority 2019, dated 2026).
pKi: −log10 of the molar value.

Molecular target: wild-type un-phosphorylated FGFR3 protein (Homo sapiens, UniProt P22607)
Assay: FGFR Enzymatic Assay (FRET detection of peptide phosphorylation)
Assay type: biochemical
Settings: pre-incubated for 4 hours, read-out: FGFR3_Ki
Description: The inhibitor potency of the exemplified compounds was determined in an enzyme discontinuous assay that measures peptide phosphorylation using FRET measurements to detect product formation. Inhibitors were serially diluted in DMSO and a volume of 0.2 μL was transferred to the wells of a 384-well plate. A 5 μL/well volume of enzyme isoforms of FGFR (−1, −2, −3 wild-type and mutant isoforms, −4) including phosphorylated and un-phosphorylated proteins diluted in assay buffer (50 mM HEPES, 10 mM MgCl2, 1 mM EGTA, 0.01% Tween-20, 5 mM DTT, pH 7.5) was added to the plate and pre-incubated with inhibitor for 5 to 15 minutes at ambient temperature. Appropriate controls (enzyme blank and enzyme with no inhibitor) were included on the plate. […] The ATP Km values were pre-determined in a separate series of experiments. The reaction plate was incubated at 25° C. for 1 hr and the reactions were ended with the addition of 5 μL/well of quench solution (50 mM Tris, 150 mM NaCl, 0.5 mg/mL BSA, pH 7.8; 45 mM EDTA, 600 nM staurosporin, with Perkin Elmer Lance Reagents at 3.75 nM Eu-antibody PY20 and 180 nM APC-Streptavidin). The plate was allowed to equilibrate for ˜10 minutes at ambient temperature before scanning on a PheraStar plate reader (BMG Labtech) instrument.
Either GraphPad prism or XLfit was used to analyze the data. The IC50 values were derived by fitting the data to a four parameter logistic equation producing a sigmoidal dose-response curve with a variable Hill coefficient. Prism equation: Y=Bottom+(Top−Bottom)/(1+10^((LogIC50−X)*Hill slope)); XLfit equation: Y=(A+((B−A)/(1+((X/C)^D)))) where X is the logarithm of inhibitor concentration and Y is the response.
The data in Table 1 was measured in wild-type un-phosphorylated FGFR3 protein.

Chain of wild-type un-phosphorylated FGFR3 protein (P22607 23-806): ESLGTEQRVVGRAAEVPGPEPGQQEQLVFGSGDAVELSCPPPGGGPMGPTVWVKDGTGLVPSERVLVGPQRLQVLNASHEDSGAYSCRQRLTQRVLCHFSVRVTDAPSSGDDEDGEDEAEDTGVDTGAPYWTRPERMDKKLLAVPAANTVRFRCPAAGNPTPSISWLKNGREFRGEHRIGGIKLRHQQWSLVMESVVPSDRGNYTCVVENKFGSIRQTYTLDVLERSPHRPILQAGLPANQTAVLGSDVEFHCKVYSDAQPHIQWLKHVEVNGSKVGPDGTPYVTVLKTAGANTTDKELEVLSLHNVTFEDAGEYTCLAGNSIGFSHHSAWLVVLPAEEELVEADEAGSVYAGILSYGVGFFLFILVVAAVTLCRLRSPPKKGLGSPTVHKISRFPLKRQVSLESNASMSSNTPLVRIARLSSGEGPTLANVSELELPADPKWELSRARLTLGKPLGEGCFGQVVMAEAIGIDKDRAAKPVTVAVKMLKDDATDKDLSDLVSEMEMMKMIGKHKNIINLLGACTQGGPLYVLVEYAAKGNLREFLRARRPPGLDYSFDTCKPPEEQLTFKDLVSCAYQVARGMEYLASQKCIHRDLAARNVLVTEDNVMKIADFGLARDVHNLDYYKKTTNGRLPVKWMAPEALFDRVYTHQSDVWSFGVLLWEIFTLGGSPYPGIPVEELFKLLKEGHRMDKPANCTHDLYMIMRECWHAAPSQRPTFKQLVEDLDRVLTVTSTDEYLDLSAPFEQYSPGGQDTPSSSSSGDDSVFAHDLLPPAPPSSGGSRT

SMILES | pKi
COCC(=O)N[C@H]1CC[C@H](n2cc(-c3cnc4ccn5cc(-c6c(Cl)cccc6Cl)nc5c4c3)cn2)CC1 [Example 44, N-((1r,4r)-4-(4-(2-(2,6-Dichlorophenyl)imidazo[2,1-f][1,6]naphthyridin-9-yl)-1H-pyrazol-1-yl)cyclohexyl)-2-methoxyacetamide] | > 8.00
CN(C)C(=O)N[C@H]1CC[C@H](n2cc(-c3cnc4ccn5cc(-c6c(Cl)cccc6Cl)nc5c4c3)cn2)CC1 [Example 45, 3-((1r,4r)-4-(4-(2-(2,6-Dichlorophenyl)imidazo[2,1-f][1,6]naphthyridin-9-yl)-1H-pyrazol-1-yl)cyclohexyl)-1,1-dimethylurea] | > 8.00
CC(=O)N1CC2(CCC(n3cc(-c4cnc5ccn6cc(-c7c(Cl)cccc7Cl)nc6c5c4)cn3)CC2)C1 [Example 46, 1-(7-(4-(2-(2,6-Dichlorophenyl)imidazo[2,1-f][1,6]naphthyridin-9-yl)-1H-pyrazol-1-yl)-2-azaspiro[3.5]nonan-2-yl)ethan-1-one] | > 8.00
Cc1c(-c2c(Cl)cccc2Cl)nc2c3cc(-c4cnn(C5CCOCC5)c4)cnc3ccn12 [Example 47, 2-(2,6-Dichlorophenyl)-3-methyl-9-(1-(tetrahydro-2H-pyran-4-yl)-1H-pyrazol-4-yl)imidazo[2,1-f][1,6]naphthyridine] | > 8.00
Cc1c(-c2c(Cl)cccc2Cl)nc2c3cc(-c4cnn([C@H]5CC[C@H](O)CC5)c4)cnc3ccn12 [Example 48, (1r,4r)-4-(4-(2-(2,6-Dichlorophenyl)-3-methylimidazo[2,1-f][1,6]naphthyridin-9-yl)-1H-pyrazol-1-yl)cyclohexan-1-ol] | > 8.00
Cc1c(-c2c(Cl)cccc2Cl)nc2c3cc(-c4cnn(C5CCC(C)(C(=O)O)CC5)c4)cnc3ccn12 (stereo not drawn) [Example 49, 4-(4-(2-(2,6-Dichlorophenyl)-3-methylimidazo[2,1-f][1,6]naphthyridin-9-yl)-1H-pyrazol-1-yl)-1-methylcyclohexane-1-carboxylic acid] | > 8.00
CN(C)C(=O)N1CCC(n2cc(-c3cnc4ccn5cc(-c6c(Cl)cccc6Cl)nc5c4c3)cn2)C1 (stereo not drawn) [Example 50, 3-(4-(2-(2,6-Dichlorophenyl)imidazo[2,1-f][1,6]naphthyridin-9-yl)-1H-pyrazol-1-yl)-N,N-dimethylpyrrolidine-1-carboxamide] | > 8.00
CN(C)S(=O)(=O)N1CCC(n2cc(-c3cnc4ccn5cc(-c6c(Cl)cccc6Cl)nc5c4c3)cn2)C1 (stereo not drawn) [Example 51, 3-(4-(2-(2,6-Dichlorophenyl)imidazo[2,1-f][1,6]naphthyridin-9-yl)-1H-pyrazol-1-yl)-N,N-dimethylpyrrolidine-1-sulfonamide] | > 8.00
CC(=O)N1CC[C@H](n2cc(-c3cnc4ccn5c(C)c(-c6c(Cl)cccc6Cl)nc5c4c3)cn2)C1 [Example 52, (S)-1-(3-(4-(2-(2,6-Dichlorophenyl)-3-methylimidazo[2,1-f][1,6]naphthyridin-9-yl)-1H-pyrazol-1-yl)pyrrolidin-1-yl)ethan-1-one] | > 8.00
Cc1c(-c2c(Cl)cccc2Cl)nc2c3cc(-c4cnn([C@H]5CCN(C(=O)CO)C5)c4)cnc3ccn12 [Example 53, (S)-1-(3-(4-(2-(2,6-Dichlorophenyl)-3-methylimidazo[2,1-f][1,6]naphthyridin-9-yl)-1H-pyrazol-1-yl)pyrrolidin-1-yl)-2-hydroxyethan-1-one] | > 8.00
Cc1c(-c2c(Cl)cccc2Cl)nc2c3cc(-c4cnn(C56CC5CN(C(=O)CO)C6)c4)cnc3ccn12 (stereo not drawn) [Example 54, 1-(1-(4-(2-(2,6-Dichlorophenyl)-3-methylimidazo[2,1-f][1,6]naphthyridin-9-yl)-1H-pyrazol-1-yl)-3-azabicyclo[3.1.0]hexan-3-yl)-2-hydroxyethan-1-one] | > 8.00
O=C(CO)N1CC[C@H](n2cc(-c3cnc4ccn5c(CO)c(-c6c(Cl)cccc6Cl)nc5c4c3)cn2)C1 [Example 55, (S)-1-(3-(4-(2-(2,6-Dichlorophenyl)-3-(hydroxymethyl)imidazo[2,1-f][1,6]naphthyridin-9-yl)-1H-pyrazol-1-yl)pyrrolidin-1-yl)-2-hydroxyethan-1-one] | > 8.00
CC(=O)N1CC[C@H](n2cc(-c3cnc4ccn5c(CO)c(-c6c(Cl)cccc6Cl)nc5c4c3)cn2)C1 [Example 56, (S)-1-(3-(4-(2-(2,6-Dichlorophenyl)-3-(hydroxymethyl)imidazo[2,1-f][1,6]naphthyridin-9-yl)-1H-pyrazol-1-yl)pyrrolidin-1-yl)ethan-1-one] | > 8.00
O=C(N1CCOCC1)N1CC[C@H](n2cc(-c3cnc4ccn5c(CO)c(-c6c(Cl)cccc6Cl)nc5c4c3)cn2)C1 [Example 57, (S)-(3-(4-(2-(2,6-Dichlorophenyl)-3-(hydroxymethyl)imidazo[2,1-f][1,6]naphthyridin-9-yl)-1H-pyrazol-1-yl)pyrrolidin-1-yl)(morpholino)methanone] | > 8.00
CC(O)c1c(-c2c(Cl)cccc2Cl)nc2c3cc(-c4cnn([C@H]5CCN(C(=O)CO)C5)c4)cnc3ccn12 (stereo partly drawn) [Example 58, 1-((3S)-3-(4-(2-(2,6-dichlorophenyl)-3-(1-hydroxyethyl)imidazo[2,1-f][1,6]naphthyridin-9-yl)-1H-pyrazol-1-yl)pyrrolidin-1-yl)-2-hydroxyethan-1-one] | > 8.00
Cc1c(-c2c(Cl)cccc2Cl)nc2c3cc(-c4cnn(C56CCN(C(=O)CO)CC5C6)c4)cnc3ccn12 (stereo not drawn) [Example 59, 1-(6-(4-(2-(2,6-Dichlorophenyl)-3-methylimidazo[2,1-f][1,6]naphthyridin-9-yl)-1H-pyrazol-1-yl)-3-azabicyclo[4.1.0]heptan-3-yl)-2-hydroxyethan-1-one] | > 8.00
CC(=O)N1CCC2CC2(n2cc(-c3cnc4ccn5c(C)c(-c6c(Cl)cccc6Cl)nc5c4c3)cn2)C1 (stereo not drawn) [Example 60, 1-(1-(4-(2-(2,6-Dichlorophenyl)-3-methylimidazo[2,1-f][1,6]naphthyridin-9-yl)-1H-pyrazol-1-yl)-3-azabicyclo[4.1.0]heptan-3-yl)ethan-1-one] | > 8.00
Cc1c(-c2c(Cl)cccc2Cl)nc2c3cc(-c4ccc(C5CN(C(=O)CO)C5)nc4)cnc3ccn12 [Example 61, 1-(3-(5-(2-(2,6-Dichlorophenyl)-3-methylimidazo[2,1-f][1,6]naphthyridin-9-yl)pyridin-2-yl)azetidin-1-yl)-2-hydroxyethan-1-one] | 7.00 to 8.00
CC(=O)N1CC(c2cncc(-c3cnc4ccn5c(C)c(-c6c(Cl)cccc6Cl)nc5c4c3)c2)C1 [Example 62, 1-(3-(5-(2-(2,6-Dichlorophenyl)-3-methylimidazo[2,1-f][1,6]naphthyridin-9-yl)pyridin-3-yl)azetidin-1-yl)ethan-1-one] | 7.00 to 8.00
CC(=O)N1CC(c2ccc(-c3cnc4ccn5c(C)c(-c6c(Cl)cccc6Cl)nc5c4c3)cc2)C1 [Example 63] | > 8.00
CC(=O)N1CC[C@H](n2cc(-c3cnc4ccn5c(CO)c(-c6ccccc6Cl)nc5c4c3)cn2)C1 [Example 64, (S)-1-(3-(4-(2-(2-Chlorophenyl)-3-(hydroxymethyl)imidazo[2,1-f][1,6]naphthyridin-9-yl)-1H-pyrazol-1-yl)pyrrolidin-1-yl)ethan-1-one] | > 8.00
CC(C)c1c(-c2ccccc2Cl)nc2c3cc(-c4cnn([C@H]5CCN(C(=O)CO)C5)c4)cnc3ccn12 [Example 65, (S)-1-(3-(4-(2-(2-Chlorophenyl)-3-isopropylimidazo[2,1-f][1,6]naphthyridin-9-yl)-1H-pyrazol-1-yl)pyrrolidin-1-yl)-2-hydroxyethan-1-one] | 7.00 to 8.00
O=C(CO)N1CC[C@H](n2cc(-c3cnc4ccn5c(Br)c(-c6c(F)cccc6Cl)nc5c4c3)cn2)C1 [Example 66, (S)-1-(3-(4-(3-Bromo-2-(2-chloro-6-fluorophenyl)imidazo[2,1-f][1,6]naphthyridin-9-yl)-1H-pyrazol-1-yl)pyrrolidin-1-yl)-2-hydroxyethan-1-one] | > 8.00
Cc1c(C2CC2)nc2c3cc(-c4cnn(C)c4)cnc3ccn12 [Example 67, 2-Cyclopropyl-3-methyl-9-(1-methyl-1H-pyrazol-4-yl)imidazo[2,1-f][1,6]naphthyridine] | 6.40 to 7.00
Cn1cc(-c2cnc3ccn4c(CO)c(-c5c(Cl)cccc5Cl)nc4c3c2)cn1 [Example 68, (2-(2,6-Dichlorophenyl)-9-(1-methyl-1H-pyrazol-4-yl)imidazo[2,1-f][1,6]naphthyridin-3-yl)methanol] | > 8.00
OCc1c(-c2c(Cl)cccc2Cl)nc2c3cc(-c4cnn(C5CC5)c4)cnc3ccn12 [Example 69, (9-(1-Cyclopropyl-1H-pyrazol-4-yl)-2-(2,6-dichlorophenyl)imidazo[2,1-f][1,6]naphthyridin-3-yl)methanol] | > 8.00
OCc1c(-c2c(Cl)cccc2Cl)nc2c3cc(-c4cnn(C5CCOC5)c4)cnc3ccn12 (stereo not drawn) [Example 70, (2-(2,6-Dichlorophenyl)-9-(1-(tetrahydrofuran-3-yl)-1H-pyrazol-4-yl)imidazo[2,1-f][1,6]naphthyridin-3-yl)methanol] | > 8.00
